Test results published in patent publication US20240270821A1, “GIP/GLP1/GCG TRI-RECEPTOR AGONISTS AND USES THEREOF” (priority 2023, published 2024).

Legend:
Type in all cases: cell-based
[1] = target: T1, hGIPR (Homo sapiens, UniProt P48546); assay: Functional cAMP activity in the presence of 1% HSA; conditions: read-out: cAMP Rel EC50, hGIPR
T1 sequence (P48546 22-466): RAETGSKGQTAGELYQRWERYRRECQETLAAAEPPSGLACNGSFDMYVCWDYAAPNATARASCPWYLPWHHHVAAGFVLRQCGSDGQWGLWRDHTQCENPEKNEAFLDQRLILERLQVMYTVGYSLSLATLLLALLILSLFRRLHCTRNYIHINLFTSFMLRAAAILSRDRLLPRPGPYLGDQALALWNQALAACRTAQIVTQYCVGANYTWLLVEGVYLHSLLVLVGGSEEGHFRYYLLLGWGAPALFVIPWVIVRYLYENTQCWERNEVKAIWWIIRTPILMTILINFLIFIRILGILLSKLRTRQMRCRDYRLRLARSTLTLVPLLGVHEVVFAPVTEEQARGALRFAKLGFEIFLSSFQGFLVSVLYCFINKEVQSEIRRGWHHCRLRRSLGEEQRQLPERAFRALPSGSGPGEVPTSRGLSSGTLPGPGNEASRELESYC

[2] = target: T1, hGIPR; assay: Functional cAMP activation in the presence of 0.1% casein (no HSA); conditions: in the presence of 0.1% casein (no HSA); geometric mean; read-out: Relative cAMP EC50, hGIPR;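 on Relative cAMP EC50, hGIPR: intracellular cAMP rise after 30 min at 37 °C read by HTRF against a standard curve, scaled between buffer alone (0%) and top control ligand concentration (100%), four-parameter fit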;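 on Relative cAMP EC50, hGLP-1R: intracellular cAMP rise after 30 min at 37 °C read by HTRF, normalized between buffer only (0%) and maximal control ligand (100%), four-parameter variable-slope fit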;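 on Relative cAMP EC50, hGcgR: intracellular cAMP rise after 30 min at 37 °C, read by HTRF against a cAMP standard curve, scaled from buffer only (0%) to maximal control ligand response (100%)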
[3] = target: hGcgR (Homo sapiens, UniProt P47871); assay: as above; conditions: in the presence of 0.1% casein (no HSA); geometric mean; read-out: Relative cAMP EC50, hGcgR;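 further: intracellular cAMP rise after 30 min at 37 °C, read by HTRF against a cAMP standard curve, scaled from buffer only (0%) to maximal control ligand response (100%)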
Experimental: After a 30-minute incubation at 37° C., the resulting increase in intracellular cAMP is quantitatively determined using the CisBio CAMP Dynamic 2 HTRF Assay Kit (62AM4PEJ). Briefly, cAMP levels within the cell are detected by adding the cAMP-d2 conjugate in cell lysis buffer followed by the antibody anti-cAMP-Eu^3+-Cryptate, also in cell lysis buffer.
Intracellular cAMP levels are determined by extrapolation using a standard curve. Dose response curves of compounds are plotted as the percentage of stimulation normalized to minimum (buffer only) and maximum (maximum concentration of each control ligand) values and analyzed using a four parameter non-linear regression fit with a variable slope (Genedata Screener 13). EC50 is the concentration of compound causing half-maximal simulation in a dose response curve. Each relative EC50 value for the Geometric mean calculation is determined from a curve fitting.

[4] = target: T2, hGLP-1R (Homo sapiens, UniProt P43220); assay: as above; conditions: in the presence of 0.1% casein (no HSA); geometric mean; read-out: Relative cAMP EC50, hGLP-1R;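 further: intracellular cAMP rise after 30 min at 37 °C read by HTRF, normalized between buffer only (0%) and maximal control ligand (100%), four-parameter variable-slope fit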
[5] = target: T2, hGLP-1R; assay: Functional cAMP activity in the presence of 1% HSA; conditions: read-out: cAMP Rel EC50, hGLP-1R
[6] = target: human GcgR (Homo sapiens, UniProt P47871); assay: Functional cAMP activity in the presence of 1% HSA; conditions: read-out: cAMP Rel EC50, hGcgR
Chain of human GcgR (P47871 26-477): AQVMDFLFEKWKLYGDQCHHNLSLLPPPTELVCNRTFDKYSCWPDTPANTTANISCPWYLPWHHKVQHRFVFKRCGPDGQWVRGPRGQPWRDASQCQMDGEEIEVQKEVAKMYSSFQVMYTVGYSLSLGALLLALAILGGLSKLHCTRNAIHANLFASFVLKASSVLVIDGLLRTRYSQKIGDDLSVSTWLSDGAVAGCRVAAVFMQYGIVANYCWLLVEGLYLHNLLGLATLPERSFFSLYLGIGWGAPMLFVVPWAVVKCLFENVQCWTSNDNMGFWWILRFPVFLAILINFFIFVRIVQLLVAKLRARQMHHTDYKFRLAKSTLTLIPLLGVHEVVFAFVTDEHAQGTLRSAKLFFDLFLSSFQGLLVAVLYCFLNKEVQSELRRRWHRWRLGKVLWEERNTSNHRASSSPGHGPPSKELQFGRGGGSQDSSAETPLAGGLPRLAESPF

T2 sequence (P43220 24-463): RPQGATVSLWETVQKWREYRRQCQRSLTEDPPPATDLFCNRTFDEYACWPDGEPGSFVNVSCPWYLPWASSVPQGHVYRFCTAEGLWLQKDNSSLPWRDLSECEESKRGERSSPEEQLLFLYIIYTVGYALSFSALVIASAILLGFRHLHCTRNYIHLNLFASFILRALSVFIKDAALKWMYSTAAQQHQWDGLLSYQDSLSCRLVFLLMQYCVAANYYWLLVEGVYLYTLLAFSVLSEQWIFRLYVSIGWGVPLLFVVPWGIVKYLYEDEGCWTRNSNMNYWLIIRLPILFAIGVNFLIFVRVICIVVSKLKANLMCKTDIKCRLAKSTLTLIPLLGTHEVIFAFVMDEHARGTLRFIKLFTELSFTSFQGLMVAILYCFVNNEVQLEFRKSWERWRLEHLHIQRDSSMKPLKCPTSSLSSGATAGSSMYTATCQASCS
Chain of hGcgR (P47871 26-477): as the sequence (P47871 26-477) above

Row | Compound | EC50 [1] [nM] | EC50 [2] [nM] | EC50 [3] [nM] | EC50 [4] [nM] | EC50 [5] [nM] | EC50 [6] [nM]
1 | CC[C@H](C)[C@H](NC(=O)[C@H](Cc1ccccc1)NC(=O)[C@H](C)NC(=O)C(C)(C)NC(=O)[C@H](CCC(N)=O)NC(=O)[C@H](C)NC(=O)[C@H](CCCCNC(=O)COCCOCCNC(=O)COCCOCCNC(=O)CC[C@H](NC(=O)CCCCCCCCCCCCCCCCCCC(=O)O)C(=O)O)NC(=O)[C@H](CCCCN)NC(=O)[C@H](CC(=O)O)NC(=O)[C@H](CC(C)C)NC(=O)[C@](C)(CC(C)C)NC(=O)[C@H](CCCN)NC(=O)[C@H](CO)NC(=O)[C@H](Cc1ccccc1)NC(=O)[C@H](CC(=O)O)NC(=O)[C@H](CO)NC(=O)[C@@H](NC(=O)[C@H](Cc1ccccc1)NC(=O)[C@@H](NC(=O)CNC(=O)[C@H](CCC(N)=O)NC(=O)C(C)(C)NC(=O)[C@@H](N)Cc1ccc(O)cc1)[C@@H](C)O)[C@@H](C)O)C(=O)N[C@@H](CCC(=O)O)C(=O)N[C@@H](Cc1ccc(O)cc1)C(=O)N[C@@H](CC(C)C)C(=O)N[C@@H](CC(C)C)C(=O)N[C@@H](CCC(=O)O)C(=O)N[C@H](C)C(=O)NCC(=O)N1CCC[C@H]1C(=O)N[C@@H](CO)C(=O)N[C@@H](CO)C(=O)NCC(=O)N[C@@H](C)C(=O)N1CCC[C@H]1C(=O)N1CCC[C@H]1C(=O)N1CCC[C@H]1C(=O)N[C@@H](CO)C(=O)N[C@@H](CCC(=O)O)C(=O)NCC(N)=O [Example 72] | 56.7 | 0.202 | 5.48 | 1.86 | 683 | 1910
2 | CC[C@H](C)[C@H](NC(=O)[C@H](Cc1ccccc1)NC(=O)[C@H](C)NC(=O)C(C)(C)NC(=O)[C@H](CCC(N)=O)NC(=O)[C@H](C)NC(=O)[C@H](CCCCNC(=O)COCCOCCNC(=O)CC[C@H](NC(=O)CCCCCCCCCCCCCCCCCCC(=O)O)C(=O)O)NC(=O)[C@H](CCCCN)NC(=O)[C@H](CC(=O)O)NC(=O)[C@H](CC(C)C)NC(=O)[C@](C)(CC(C)C)NC(=O)[C@H](CCCN)NC(=O)[C@H](CO)NC(=O)[C@H](Cc1ccccc1)NC(=O)[C@H](CC(=O)O)NC(=O)[C@H](CO)NC(=O)[C@@H](NC(=O)[C@H](Cc1ccccc1)NC(=O)[C@@H](NC(=O)CNC(=O)[C@H](CCC(N)=O)NC(=O)C(C)(C)NC(=O)[C@@H](N)Cc1ccc(O)cc1)[C@@H](C)O)[C@@H](C)O)C(=O)N[C@@H](CCC(=O)O)C(=O)N[C@@H](Cc1c[nH]c2ccccc12)C(=O)N[C@@H](CC(C)C)C(=O)N[C@@H](CC(C)C)C(=O)N[C@@H](CCC(=O)O)C(=O)NCC(=O)NCC(=O)N1CCC[C@H]1C(=O)N[C@@H](CO)C(=O)N[C@@H](CO)C(=O)NCC(=O)N[C@@H](C)C(=O)N1CCC[C@H]1C(=O)N1CCC[C@H]1C(=O)N1CCC[C@H]1C(=O)N[C@@H](CO)C(=O)NCC(=O)N[C@@H](CCC(=O)O)C(N)=O [Example 100] | 77.2 | 0.293 | 13.1 | 3.21 | 1190 | 2390
3 | CC[C@H](C)[C@H](NC(=O)[C@H](Cc1ccccc1)NC(=O)[C@H](C)NC(=O)C(C)(C)NC(=O)[C@H](CCC(N)=O)NC(=O)[C@H](C)NC(=O)[C@H](CCCCNC(=O)COCCOCCNC(=O)CC[C@H](NC(=O)CCCCCCCCCCCCCCCCCCC(=O)O)C(=O)O)NC(=O)[C@H](CCCCN)NC(=O)[C@H](CC(=O)O)NC(=O)[C@H](CC(C)C)NC(=O)[C@](C)(CC(C)C)NC(=O)[C@H](CCCN)NC(=O)[C@H](CO)NC(=O)[C@H](Cc1ccccc1)NC(=O)[C@H](CC(=O)O)NC(=O)[C@H](CO)NC(=O)[C@@H](NC(=O)[C@H](Cc1ccccc1)NC(=O)[C@@H](NC(=O)CNC(=O)[C@H](CCC(N)=O)NC(=O)C(C)(C)NC(=O)[C@@H](N)Cc1ccc(O)cc1)[C@@H](C)O)[C@@H](C)O)C(=O)N[C@@H](CCC(=O)O)C(=O)N[C@@H](Cc1c[nH]c2ccccc12)C(=O)N[C@@H](CC(C)C)C(=O)N[C@@H](CC(C)C)C(=O)N[C@@H](CCC(=O)O)C(=O)NCC(=O)NCC(=O)N1CCC[C@H]1C(=O)N[C@@H](CO)C(=O)N[C@@H](CO)C(=O)NCC(=O)N[C@@H](C)C(=O)N1CCC[C@H]1C(=O)N1CCC[C@H]1C(=O)N1C[C@H](O)C[C@H]1C(=O)N[C@@H](CO)C(=O)NCC(=O)N[C@@H](CCC(=O)O)C(N)=O [Example 105] | 72.5 | 0.269 | 12.5 | 2.86 | 768 | 2790
4 | CC[C@H](C)[C@H](NC(=O)[C@H](Cc1ccccc1)NC(=O)[C@H](C)NC(=O)C(C)(C)NC(=O)[C@H](CCC(N)=O)NC(=O)[C@H](C)NC(=O)[C@H](CCCCNC(=O)COCCOCCNC(=O)COCCOCCNC(=O)CC[C@H](NC(=O)CCCCCCCCCCCCCCCCC(=O)O)C(=O)O)NC(=O)[C@H](CCCCN)NC(=O)[C@H](CC(=O)O)NC(=O)[C@H](CC(C)C)NC(=O)[C@](C)(CC(C)C)NC(=O)[C@H](CCCN)NC(=O)[C@H](CO)NC(=O)[C@H](Cc1ccccc1)NC(=O)[C@H](CC(=O)O)NC(=O)[C@H](CO)NC(=O)[C@@H](NC(=O)[C@H](Cc1ccccc1)NC(=O)[C@@H](NC(=O)CNC(=O)[C@H](CCC(N)=O)NC(=O)C(C)(C)NC(=O)[C@@H](N)Cc1ccc(O)cc1)[C@@H](C)O)[C@@H](C)O)C(=O)N[C@@H](CCC(=O)O)C(=O)N[C@@H](Cc1ccc(O)cc1)C(=O)N[C@@H](CC(C)C)C(=O)N[C@@H](CC(C)C)C(=O)N[C@@H](CCC(=O)O)C(=O)N[C@H](C)C(=O)NCC(=O)N1CCC[C@H]1C(=O)N[C@@H](CO)C(=O)N[C@@H](CO)C(=O)NCC(=O)N[C@@H](C)C(=O)N1CCC[C@H]1C(=O)N1CCC[C@H]1C(=O)N1CCC[C@H]1C(=O)N[C@@H](CO)C(=O)NCC(=O)N[C@@H](CCC(=O)O)C(N)=O [Example 128] | 24.3 | 0.307 | 6.76 | 3.5 | 679 | 1090
5 | CC[C@H](C)[C@H](NC(=O)[C@H](Cc1ccccc1)NC(=O)[C@H](C)NC(=O)C(C)(C)NC(=O)[C@H](CCC(N)=O)NC(=O)[C@H](C)NC(=O)[C@H](CCCCNC(=O)CC[C@H](NC(=O)CC[C@H](NC(=O)CCCCCCCCCCCCCCCCC(=O)O)C(=O)O)C(=O)O)NC(=O)[C@H](CCCCN)NC(=O)[C@H](CC(=O)O)NC(=O)[C@H](CC(C)C)NC(=O)[C@](C)(CC(C)C)NC(=O)[C@H](CCCN)NC(=O)[C@H](CO)NC(=O)[C@H](Cc1ccccc1)NC(=O)[C@H](CC(=O)O)NC(=O)[C@H](CO)NC(=O)[C@@H](NC(=O)[C@H](Cc1ccccc1)NC(=O)[C@@H](NC(=O)CNC(=O)[C@H](CCC(N)=O)NC(=O)C(C)(C)NC(=O)[C@@H](N)Cc1ccc(O)cc1)[C@@H](C)O)[C@@H](C)O)C(=O)N[C@@H](CCC(=O)O)C(=O)N[C@@H](Cc1ccc(O)cc1)C(=O)N[C@@H](CC(C)C)C(=O)N[C@@H](CC(C)C)C(=O)N[C@@H](CCC(=O)O)C(=O)NCC(=O)NCC(=O)N1CCC[C@H]1C(=O)N[C@@H](CO)C(=O)N[C@@H](CO)C(=O)NCC(=O)N[C@@H](C)C(=O)N1CCC[C@H]1C(=O)N1CCC[C@H]1C(=O)N1CCC[C@H]1C(=O)N[C@@H](CO)C(=O)NCC(=O)N[C@@H](CO)C(N)=O [Example 199] | 41.6 | 0.232 | 5.8 | 4.91 | 1060 | 1000
6 | CC[C@H](C)[C@H](NC(=O)[C@H](Cc1ccccc1)NC(=O)[C@H](C)NC(=O)C(C)(C)NC(=O)[C@H](CCC(N)=O)NC(=O)[C@H](C)NC(=O)[C@H](CCCCNC(=O)COCCOCCNC(=O)CC[C@H](NC(=O)CCCCCCCCCCCCCCCCC(=O)O)C(=O)O)NC(=O)[C@H](CCCCN)NC(=O)[C@H](CC(=O)O)NC(=O)[C@H](CC(C)C)NC(=O)[C@](C)(CC(C)C)NC(=O)[C@H](CCCN)NC(=O)[C@H](CO)NC(=O)[C@H](Cc1ccccc1)NC(=O)[C@H](CC(=O)O)NC(=O)[C@H](CO)NC(=O)[C@@H](NC(=O)[C@H](Cc1ccccc1)NC(=O)[C@@H](NC(=O)CNC(=O)[C@H](CCC(N)=O)NC(=O)C(C)(C)NC(=O)[C@@H](N)Cc1ccc(O)cc1)[C@@H](C)O)[C@@H](C)O)C(=O)N[C@@H](CCC(=O)O)C(=O)N[C@@H](Cc1ccc(O)cc1)C(=O)N[C@@H](CC(C)C)C(=O)N[C@@H](CC(C)C)C(=O)N[C@@H](CCC(=O)O)C(=O)N[C@H](C)C(=O)NCC(=O)N1CCC[C@H]1C(=O)N[C@@H](CO)C(=O)N[C@@H](CO)C(=O)NCC(=O)N[C@@H](C)C(=O)N1CCC[C@H]1C(=O)N1CCC[C@H]1C(=O)N1CCC[C@H]1C(=O)N[C@@H](CCC(=O)O)C(=O)NCC(=O)N[C@@H](CCC(=O)O)C(N)=O [Example 206] | 38.8 | 0.224 | 2.2 | 2.77 | 372 | 545
